Data as given in patent publication US8822449B2, “Substituted aminoindanes and analogs thereof, and the pharmaceutical use thereof” (Sanofi, priority 2008, dated 2014).

target: T1, sodium-proton exchanger of subtype 3 (NHE3) (Homo sapiens, UniProt P48764); assay: Recovery of intracellular pH (pHi) after acidification in LAP1 cells stably expressing NHE3 (BCECF fluorescence, FLIPR); assay type: cell-based; conditions: LAP1 cells stably expressing NHE3; pH recovery after acidification; range 1 is % inhibition at 10 μM; read-out: Activity range (inhibitory effect on NHE3)
T1 construct: expressed in transfected cells
T1 sequence (P48764 26-834): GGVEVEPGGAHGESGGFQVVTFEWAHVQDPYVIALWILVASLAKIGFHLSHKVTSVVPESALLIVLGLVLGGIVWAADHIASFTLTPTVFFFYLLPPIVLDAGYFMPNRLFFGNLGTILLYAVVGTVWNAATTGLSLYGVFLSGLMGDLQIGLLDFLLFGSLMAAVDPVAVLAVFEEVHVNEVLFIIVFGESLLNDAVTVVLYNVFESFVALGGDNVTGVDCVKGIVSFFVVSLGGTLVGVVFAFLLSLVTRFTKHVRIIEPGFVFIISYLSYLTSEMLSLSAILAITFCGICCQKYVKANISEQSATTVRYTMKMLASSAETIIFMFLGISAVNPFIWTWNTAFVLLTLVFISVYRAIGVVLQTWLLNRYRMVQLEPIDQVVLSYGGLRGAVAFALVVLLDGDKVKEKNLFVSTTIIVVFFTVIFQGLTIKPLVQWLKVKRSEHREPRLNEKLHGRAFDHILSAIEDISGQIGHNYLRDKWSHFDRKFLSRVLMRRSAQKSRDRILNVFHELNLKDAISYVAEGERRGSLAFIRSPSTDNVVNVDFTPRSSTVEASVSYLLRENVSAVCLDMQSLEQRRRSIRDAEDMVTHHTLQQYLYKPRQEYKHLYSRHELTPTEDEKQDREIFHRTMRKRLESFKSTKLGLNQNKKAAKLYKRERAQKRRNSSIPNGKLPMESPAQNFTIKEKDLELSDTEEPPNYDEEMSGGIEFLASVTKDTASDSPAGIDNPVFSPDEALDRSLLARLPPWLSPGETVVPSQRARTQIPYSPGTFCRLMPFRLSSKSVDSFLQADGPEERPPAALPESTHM

SMILES	IC50 [nM]	inhibition at 10 µM [%]
NC(=O)Nc1cccc(O[C@@H]2c3ccccc3C[C@H]2N2CCC[C@H](N)C2)c1 (racemic) [Example 232, {3-[rac-trans-(1,2)-2-((S)-3-aminopiperidin-1-yl)indan-1-yloxy]phenyl}urea]	1000 to 10000	–
N[C@H]1CCCN([C@H]2CCc3ccccc3[C@@H]2Oc2ccc(Cl)cc2)C1 (racemic) [Example 175, (S)-1-[rac-trans-(1,2)-1-(4-chlorophenoxy)-1,2,3,4-tetrahydronaphthalen-2-yl]piperidin-3-ylamine]	–	20 to 50
C[C@]1(O)CCN([C@H]2Cc3c(Cl)cc(Cl)cc3[C@@H]2Oc2ccc(S(C)(=O)=O)cc2)C1 (racemic) [Example 146, (S)-1-[(1S,2S)-4,6-dichloro-1-(4-methanesulfonylphenoxy)indan-2-yl]-3-methylpyrrolidin-3-ol]	1000 to 10000	–
NS(=O)(=O)c1ccc(O[C@H]2c3cc(Cl)cc(Cl)c3C[C@@H]2NC2CCCC2)c(F)c1 [Example 748, 4-(trans-(1S,2S)-4,6-Dichloro-2-cyclopentylamino-indan-1-yloxy)-3-fluoro-benzenesulfonamide]	1000 to 10000	–
Fc1ccc(O[C@H]2c3cc(Cl)cc(Cl)c3C[C@@H]2N2CCCC2)c2ncccc12 [Example 593, 8-((1S,2S)-4,6-dichloro-2-pyrrolidin-1-ylindan-1-yloxy)-5-fluoroquinoline]	–	20 to 50
Brc1ccccc1O[C@@H]1c2ccccc2C[C@H]1N1C[C@H]2CNC[C@H]2C1 (racemic) [Example 11, 2-[rac-trans-(1,2)-1-(2-bromophenoxy)indan-2-yl]octahydropyrrolo[3,4-c]pyrrole]	1000 to 10000	–
CN(C)Cc1ccc(O[C@H]2c3ccccc3CC[C@@H]2N2CCC[C@@H](N)C2)cc1 (racemic) [Example 67, (R)-1-[rac-trans-(1,2)-1-(4-dimethylaminomethylphenoxy)-1,2,3,4-tetrahydronaphthalen-2-yl]piperidin-3-ylamine]	–	20 to 50
N#Cc1ccc(O[C@H]2c3ccccc3CC[C@@H]2N2CCC[C@H](N)C2)c(Cl)c1 (racemic) [Example 532, 4-[rac-trans-(1,2)-2-((S)-3-aminopiperidin-1-yl)-1,2,3,4-tetrahydronaphthalen-1-yloxy]-3-chlorobenzonitrile]	1000 to 10000	–
N#Cc1c(F)cccc1O[C@@H]1c2ccccc2C[C@H]1N1C[C@H]2CNC[C@H]2C1 (racemic) [Example 398, 2-fluoro-6-[rac-trans-(1,2)-2-(hexahydropyrrolo[3,4-c]pyrrol-2-yl)indan-1-yloxy]benzonitrile]	1000 to 10000	–
COc1ccc(C)cc1O[C@H]1c2ccccc2CC[C@@H]1N1CCC[C@H](N)C1 (racemic) [Example 157, (S)-1-[rac-trans-(1,2)-1-(2-methoxy-5-methylphenoxy)-1,2,3,4-tetrahydronaphthalen-2-yl]piperidin-3-ylamine]	–	20 to 50
Cc1cc(C#N)cc(C)c1O[C@H]1c2ccccc2CC[C@@H]1N1CCC[C@@H](N)C1 (racemic) [Example 511, 4-[rac-trans-(1,2)-2-((R)-3-aminopiperidin-1-yl)-1,2,3,4-tetrahydronaphthalen-1-yloxy]-3,5-dimethylbenzonitrile]	–	20 to 50
CCCc1ccc(NC(C)=O)cc1O[C@H]1c2ccccc2CC[C@@H]1N1CCC[C@@H](N)C1 (racemic) [Example 675, N-{3-[rac-trans-(1,2)-2-((R)-3-aminopiperidin-1-yl)-1,2,3,4-tetrahydronaphthalen-1-yloxy]-4-propylphenyl}acetamide]	1000 to 10000	–
N#Cc1cc(Cl)ccc1O[C@@H]1c2ccccc2C[C@H]1N1CCC(CN)CC1 (racemic) [Example 376, 2-[rac-trans-(1,2)-2-(4-aminomethylpiperidin-1-yl)indan-1-yloxy]-5-chlorobenzonitrile]	1000 to 10000	–
N#CCc1cccc(O[C@H]2c3ccccc3CC[C@@H]2N2CCC[C@@H](N)C2)c1 (racemic) [Example 230, {3-[rac-trans-(1,2)-2-((R)-3-aminopiperidin-1-yl)-1,2,3,4-tetrahydronaphthalen-1-yloxy]phenyl}acetonitrile]	–	20 to 50
CN1CCN(c2ccc(O[C@H]3c4cc(Cl)cc(Cl)c4C[C@@H]3N3CC[C@@H](O)C3)cc2)C1=O [Example 332, 1-{4-[trans-(1S,2S)-4,6-dichloro-2-((R)-3-hydroxypyrrolidin-1-yl)indan-1-yloxy]phenyl}-3-methylimidazolidin-2-one]	1000 to 10000	–
CS(=O)(=O)c1ccc(O[C@@H]2c3cc(Cl)cc(Cl)c3C[C@H]2n2ccnc2)cc1 (racemic) [Example 278, 1-[rac-trans-(1,2)-4,6-dichloro-1-(4-methanesulfonylphenoxy)indan-2-yl]-1H-imidazole]	1000 to 10000	–
N#Cc1ccc(CO[C@H]2c3cc(Cl)cc(Cl)c3C[C@@H]2N2CC[C@@H](O)C2)c(F)c1 [Example 482, 4-[(1S,2S)-4,6-dichloro-2-((R)-3-hydroxypyrrolidin-1-yl)indan-1-yloxymethyl]-3-fluorobenzonitrile]	–	20 to 50
NCC1CCN([C@@H]2Cc3ccccc3[C@H]2Oc2cccc(N3CCNCC3)c2)CC1 (racemic) [Example 616, C-{1-[rac-trans-(1,2)-1-(3-piperazin-1-ylphenoxy)indan-2-yl]piperidin-4-yl}methylamine]	1000 to 10000	–
Cc1ccc(O[C@H]2c3ccccc3CC[C@@H]2N2CCC[C@@H](N)C2)cc1Cl (racemic) [Example 53, (R)-1-[rac-trans-(1,2)-1-(3-chloro-4-methylphenoxy)-1,2,3,4-tetrahydronaphthalen-2-yl]piperidin-3-ylamine]	–	20 to 50

Other lines, results leading:

IC50 [nM]	inhibition at 10 µM [%]	SMILES
< 1000	–	Cc1nnc(C)n1-c1ccc(O[C@H]2c3cc(Cl)cc(Cl)c3C[C@@H]2NC2CCCC2)c(F)c1 [Example 746, Cyclopentyl-{trans-(1S,2S)-4,6-dichloro-1-[4-(3,5-dimethyl-[1,2,4]triazol-4-yl)-2-fluoro-phenoxy]-indan-2-yl}-amine]
< 1000	–	CN(C)CCCN(C)[C@H]1Cc2c(Cl)cc(Cl)cc2[C@@H]1Oc1ccc(S(C)(=O)=O)cc1 [Example 672, N-[trans-(1S,2S)-4,6-dichloro-1-(4-methanesulfonylphenoxy)indan-2-yl]-N,N′,N′-trimethylpropane-1,3-diamine]
< 1000	–	NC(=O)c1ccccc1O[C@H]1c2ccccc2CC[C@@H]1N1CCC[C@H](N)C1 (racemic) [Example 373, 2-[rac-trans-(1,2)-2-((S)-3-aminopiperidin-1-yl)-1,2,3,4-tetrahydronaphthalen-1-yloxy]benzamide]
1000 to 10000	–	O=c1ocnn1-c1ccc(O[C@H]2c3cc(Cl)cc(Cl)c3C[C@@H]2N2CC[C@@H](O)C2)cc1 [Example 735, 3-{4-[trans-(1S,2S)-4,6-Dichloro-2-((R)-3-hydroxy-pyrrolidin-1-yl)-indan-1-yloxy]-phenyl}-3H-[1,3,4]oxadiazol-2-one]
1000 to 10000	–	CN(C1CCCNC1)[C@@H]1Cc2ccccc2[C@H]1Oc1ccc(S(N)(=O)=O)c(Cl)c1Cl (mixture of isomers) [Example 360, 2,3-dichloro-4-[rac-trans-(1,2)-2-(methylpiperidin-3-ylamino)indan-1-yloxy]benzenesulfonamide]
< 1000	–	Cc1nnc(C)n1-c1ccc(O[C@H]2c3cc(Cl)cc(Cl)c3C[C@@H]2N(C)CCN(C)C)c(F)c1 [Example 726, N-{trans-(1S,2S)-4,6-Dichloro-1-[4-(3,5-dimethyl-[1,2,4]triazol-4-yl)-2-fluoro-phenoxy]-indan-2-yl}-N,N′,N′-trimethyl-ethane-1,2-diamine]
< 1000	–	Cc1nnc(C(C)C)n1-c1ccc(O[C@H]2c3cc(Cl)cc(Cl)c3C[C@@H]2N2CC[C@@H](O)C2)cc1 [Example 715, (R)-1-{trans-(1S,2S)-4,6-Dichloro-1-[4-(3-isopropyl-5-methyl-[1,2,4]triazol-4-yl)-phenoxy]-indan-2-yl}-pyrrolidin-3-ol]
< 1000	–	O=C1CCCN1c1ccc(O[C@H]2c3cc(Cl)cc(Cl)c3C[C@@H]2N2CC[C@@H](O)C2)c(Cl)c1 [Example 321, 1-{3-chloro-4-[(1S,2S)-4,6-dichloro-2-((R)-3-hydroxypyrrolidin-1-yl)indan-1-yloxy]phenyl}pyrrolidin-2-one]
< 1000	–	O=C(O)COC(=O)Nc1ccc(O[C@H]2c3cc(Cl)cc(Cl)c3C[C@@H]2N2CC[C@@H](O)C2)c(Cl)c1 [Example 236, {3-chloro-4-[(1S,2S)-4,6-dichloro-2-((R)-3-hydroxypyrrolidin-1-yl)indan-1-yloxy]phenylcarbamoyloxy}acetic acid]
< 1000	–	N[C@@H]1CCCN([C@H]2Cc3c(Cl)cc(Cl)cc3[C@@H]2Oc2ccc(S(N)(=O)=O)c(Cl)c2Cl)C1 [Example 550, 4-[trans-(1S,2S)-2-((R)-3-aminopiperidin-1-yl)-4,6-dichloroindan-1-yloxy]-2,3-dichlorobenzenesulfonamide]
